One test relates to mice. Kind of test: Voluntary alternation behavior test (Y-maze test) of mice administered with trimethyltin. The test is classed as in vivo. Here is the method:
The voluntary alternation behavior test (Y-maze test) is one kind of a behavior test using a Y-shaped maze constituted with three arms. First, a mouse is placed on the tip of one arm out of the three arms, letting the mouse freely explore in the maze over 8 minutes, and arms where the mouse transferred are recorded in order. Then, the number of times of transferring to each arm (total arm selection number (total arm entries)) and the number of sequentially selecting three different arms (number of alternation behavior (number of spontaneous behavior)) are counted.
Trimethyltin (hereinafter referred to as “TMT”) is an organic metal compound having neurotoxicity, and acute nerve cell death is cased particularly in granular nerve cells of the hippocampus dentate gyrus, which thus affects memory and learning abilities of a mouse.
The voluntary alternation tests (Y-maze tests) were performed on 1) test groups to which the compound 8 was singly administered and 2) test groups to which TMT and the compound 8 were administered. In the test groups to which the compound 8 was singly administered, the compound 8 was dissolved in 0.1% DMSO to adjust a concentration so as to have each of the doses of 100 and 500 μg/kg and intraperitoneally injected to 6 mice in every administration example each in a dose of 0.25 mL. In 0 μg/kg weight administration examples of controls, 0.25 mL of a phosphoric acid buffer containing 0.1% DMSO was intraperitoneally injected in each time. The voluntary alternation tests (Y-maze tests) were performed on each of the administration groups after the elapse of 2 hours from intraperitoneal administration. In the test group in which TMT and the compound 8 were administered, TMT (2 mg/kg weight) was intraperitoneally administered to a mouse, and the compound 8 was intraperitoneally administered in the same manner as the test groups in which the compound 8 was singly administered after 2 days have passed, and the voluntary alternation test (Y-maze test) was performed after the elapse of 2 hours. FIG. 32 show the results. Significance tests were performed in a Turkey's test (*, ##) and a Student's t-test (++). “DAEE” denotes the compound 8.

Test [1] is described as follows: Measurement of weights of mice after completion of stress. The test is classed as in vivo. To be noted: 500 μg/kg for 1 week after completion of stress. The text has this: A weight of a mouse before stress was subtracted from of the weight of the mouse immediately after completion of stress for 3 weeks without administering the compound 8 and the weight of the mouse after administering the compound 8 for 1 week after completion of stress, respectively, to obtain weight gaps (g). FIGS. 29 and 30 show the results. Although doses are described in FIG. 29, the compound 8 was not administered as described above, and mice corresponding to each of the administration groups administered with the compound 8 for 1 week after completion of stress are only shown.

For another test, the system named is MAP kinases. Nature of the test: Measurement of activation of MAP kinases in cultured nerve cells (western immunoblotting). It is filed as cell-based. Particulars: fetal rat cerebral cortex nerve cells, compound 500 μg/ml, 30 minutes, relative to control. Here is the method: Activation of MAP kinases was measured on respective compounds in Table 1 including the compound obtained in Production Example with western immunoblotting as follows. Nerve cells were dispersed from a cerebral cortex of a 17-day-old fetal rat and the nerve cells were cultured in a Dulbecco's modified eagle medium (DMEM) containing 5%; fetal bovine serum for 1 day. A culture solution was exchanged to a serum-free medium (B27 supplement added Neurobasal, Invitrogen Corporation), and the nerve cells were cultured in a culture petri dish coated with polyornithine at a density of 20,000 to 40,000 cells/cm^2. Three days later, each of the compounds in Table 1 was added thereto, and culture for 30 minutes was continued. Then, cells were recovered on ice with a solution of a Tris-HCL buffer as a base containing a phosphatase inhibitor. The protein concentration of the obtained cell extraction was determined using a BCA Protein Assay Kit (TAKARABIO INC.), a constant amount (3 μg for MAP kinase measurement, 5 μg for phosphorylated MAP kinase measurement) of the protein was electrophoresed with a polyacrylic amide gel. The protein was transcribed to a PVDF membrane from the gel after electrophoresis, and western immunoblotting was carried out using the primary antibodies: an anti-MAP kinase antibody (Cell Signaling Technology, Inc.) and an antiphosphorylated MAP kinase antibody (Cell Signaling Technology, Inc.), respectively. Subsequently, an enzyme activity was subjected to color development by being reacted with the secondary antibody: an alkaline phosphatase labeled anti-rabbit IgG antibody (Promega KK) to measure MAP kinases and phosphorylated MAP kinases. In addition, each compound was dissolved in 0.7% DMSO and adjusted to have a concentration of 500 μg/ml. A control was added with a phosphoric acid buffer containing 0.1% DMSO in the same amount as the compound.
The above obtained concentration measurement of the electrophoresis gel band was digitalized by calculating an intensity with Image J (BioArts International, Inc.). The numerical value of MAP kinases of each compound was divided by the numerical value of the control's MAP kinases, and the numerical value of phosphorylated MAP kinases of each compound was divided by the numerical value of the control's phosphorylated MAP kinases to find a ratio of the MAP kinases of each compound to the control and a ratio of the phosphorylated MAP kinases of the each compound to the control. Then, the obtained ratio of the phosphorylated MAP kinases to the control was divided by the obtained ratio of the MAP kinases to the control to find a ratio of the phosphorylated MAP kinases to the MAP kinases and graphs were formed and shown in FIGS. 1 to 3. Compound 1, compound 6, compound 11, compound 16, compound 21 and compound 36 in Table 1 were used from products made by Wako Pure Chemical Industries, Ltd.
A general note: Immunoblotting shows a protein as a band on a membrane.

For the compound `CCCCCCC/C=C/C(=O)OCC` [Compound 8, trans-2-decenoic acid ethyl ester], the “total arm entries (motor function)” value in the test on mice (100 and 500 μg/kg intraperitoneally, 2 hours before test, with or without TMT) is on record as “no difference”. The “voluntary alternation behavior, compound singly administered” value in the test with mice (100 and 500 μg/kg intraperitoneally, test after 2 hours) is reported as “significantly increased”. Also, the “voluntary alternation behavior in TMT-treated mice” value with mice (TMT 2 mg/kg intraperitoneally, compound 8 after 2 days, test after 2 hours) is listed as “suppressed decrease”. Further, in test [1], the “weight gap, stressed vs non-stressed example” value is given as “no significant difference”. The “ratio of phosphorylated MAP kinases to MAP kinases” value with MAP kinases is “twice or more”; in the test on MAP kinases (listed as trans-2-decenic acid ethyl ester) it was 11 times.

(Values after US8557864B2, “Agent having neurotrophic factor-like activity” (Nagoya Industrial Science Research Institute, priority 2007, dated 2013).)
